From PubChem BioAssay (NCI)
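Values below derive from 48-hour exposures of cells grown in 96-well plates, with endpoints linearly interpolated between the two concentrations bracketing the appropriate inhibition level. GI50 is the concentration that inhibits growth by half. TGI: concentration producing complete growth inhibition.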

Experiments:
Experiment in all cases: growth of human tumour cells (NCI), 48 h
CCRF-CEM leukemia = tested on: CCRF-CEM leukemia
NCI-H23 lung = tested on: NCI-H23 lung
SK-MEL-28 melanoma = tested on: SK-MEL-28 melanoma
A549 NSCLC = tested on: A549 NSCLC
MDA-MB-468 breast = tested on: MDA-MB-468 breast
COLO 205 colon = tested on: COLO 205 colon
MDA-MB-435 = tested on: MDA-MB-435
HS 578T breast = tested on: HS 578T breast
NCI-H522 lung = tested on: NCI-H522 lung
HOP-92 NSCLC = tested on: HOP-92 NSCLC
MOLT-4 leukemia = tested on: MOLT-4 leukemia
NCI-H226 lung = tested on: NCI-H226 lung
PC-3 prostate = tested on: PC-3 prostate
SK-MEL-5 melanoma = tested on: SK-MEL-5 melanoma
MDA-MB-231 breast = tested on: MDA-MB-231 breast
HT29 colon = tested on: HT29 colon
MALME-3M melanoma = tested on: MALME-3M melanoma
SNB-75 CNS = tested on: SNB-75 CNS
KM12 colon = tested on: KM12 colon
HCT-116 colon = tested on: HCT-116 colon
M14 melanoma = tested on: M14 melanoma
EKVX NSCLC = tested on: EKVX NSCLC
HL-60(TB) leukemia = tested on: HL-60(TB) leukemia
UACC-62 melanoma = tested on: UACC-62 melanoma
BT-549 breast = tested on: BT-549 breast
HCC-2998 colon = tested on: HCC-2998 colon
SR leukemia = tested on: SR leukemia
SNB-19 CNS = tested on: SNB-19 CNS
SN12C renal = tested on: SN12C renal
SK-MEL-2 melanoma = tested on: SK-MEL-2 melanoma
OVCAR-8 ovarian = tested on: OVCAR-8 ovarian
HOP-62 NSCLC = tested on: HOP-62 NSCLC
RPMI-8226 leukemia = tested on: RPMI-8226 leukemia
NCI-H460 lung = tested on: NCI-H460 lung
CAKI-1 renal = tested on: CAKI-1 renal
NCI/ADR-RES ovarian = tested on: NCI/ADR-RES ovarian
DU-145 prostate = tested on: DU-145 prostate
SW-620 colon = tested on: SW-620 colon
MCF7 breast = tested on: MCF7 breast
LOX IMVI melanoma = tested on: LOX IMVI melanoma
UACC-257 melanoma = tested on: UACC-257 melanoma
ACHN renal = tested on: ACHN renal
OVCAR-3 ovarian = tested on: OVCAR-3 ovarian
OVCAR-5 ovarian = tested on: OVCAR-5 ovarian
RXF 393 renal = tested on: RXF 393 renal
UO-31 renal = tested on: UO-31 renal
A498 renal = tested on: A498 renal
OVCAR-4 ovarian = tested on: OVCAR-4 ovarian
TK-10 renal = tested on: TK-10 renal
786-0 renal = tested on: 786-0 renal
T-47D breast = tested on: T-47D breast
SK-OV-3 ovarian = tested on: SK-OV-3 ovarian
SF-539 CNS = tested on: SF-539 CNS
K-562 leukemia = tested on: K-562 leukemia
U251 CNS = tested on: U251 CNS
IGROV1 ovarian = tested on: IGROV1 ovarian
HCT-15 colon = tested on: HCT-15 colon
SF-268 CNS = tested on: SF-268 CNS
SF-295 CNS = tested on: SF-295 CNS

COc1ccc(NC(=O)N/N=C/c2c[nH]c3ccccc23)cc1
GI50 (CCRF-CEM leukemia): 379 nM
TGI (CCRF-CEM leukemia): 17600 nM
GI50 (NCI-H23 lung): 2140 nM
TGI (NCI-H23 lung): > 51700 nM
GI50 (SK-MEL-28 melanoma): 3310 nM
TGI (SK-MEL-28 melanoma): > 100000 nM
GI50 (A549 NSCLC): 815 nM
TGI (A549 NSCLC): > 100000 nM
GI50 (MDA-MB-468 breast): 911 nM
TGI (MDA-MB-468 breast): 4400 nM
GI50 (COLO 205 colon): 586 nM
TGI (COLO 205 colon): 3120 nM
GI50 (MDA-MB-435): 255 nM
TGI (MDA-MB-435): 1890 nM
GI50 (HS 578T breast): 1130 nM
TGI (HS 578T breast): > 100000 nM
GI50 (NCI-H522 lung): 249 nM
TGI (NCI-H522 lung): 879 nM
GI50 (HOP-92 NSCLC): 2290 nM
TGI (HOP-92 NSCLC): 38300 nM
GI50 (MOLT-4 leukemia): 502 nM
TGI (MOLT-4 leukemia): 50700 nM
GI50 (NCI-H226 lung): 11000 nM
TGI (NCI-H226 lung): > 100000 nM
GI50 (PC-3 prostate): 1650 nM
TGI (PC-3 prostate): > 100000 nM
GI50 (SK-MEL-5 melanoma): 524 nM
TGI (SK-MEL-5 melanoma): 5180 nM
GI50 (MDA-MB-231 breast): 1010 nM
TGI (MDA-MB-231 breast): 56000 nM
GI50 (HT29 colon): 357 nM
TGI (HT29 colon): 5010 nM
GI50 (MALME-3M melanoma): 547 nM
TGI (MALME-3M melanoma): > 100000 nM
GI50 (SNB-75 CNS): 1410 nM
TGI (SNB-75 CNS): 12100 nM
GI50 (KM12 colon): 448 nM
TGI (KM12 colon): > 54500 nM
GI50 (HCT-116 colon): 389 nM
TGI (HCT-116 colon): 22600 nM
GI50 (M14 melanoma): 340 nM
TGI (M14 melanoma): > 100000 nM
GI50 (EKVX NSCLC): 3410 nM
TGI (EKVX NSCLC): > 100000 nM
GI50 (HL-60(TB) leukemia): 279 nM
TGI (HL-60(TB) leukemia): 1530 nM
GI50 (UACC-62 melanoma): 364 nM
TGI (UACC-62 melanoma): > 47300 nM
GI50 (BT-549 breast): 670 nM
TGI (BT-549 breast): > 62800 nM
GI50 (HCC-2998 colon): 1910 nM
TGI (HCC-2998 colon): 24100 nM
GI50 (SR leukemia): 250 nM
TGI (SR leukemia): > 53400 nM
GI50 (SNB-19 CNS): 1830 nM
TGI (SNB-19 CNS): > 100000 nM
GI50 (SN12C renal): 1030 nM
TGI (SN12C renal): > 56700 nM
GI50 (SK-MEL-2 melanoma): 294 nM
TGI (SK-MEL-2 melanoma): 28800 nM
GI50 (OVCAR-8 ovarian): 801 nM
TGI (OVCAR-8 ovarian): 24600 nM
GI50 (HOP-62 NSCLC): 724 nM
TGI (HOP-62 NSCLC): > 100000 nM
GI50 (RPMI-8226 leukemia): 1090 nM
TGI (RPMI-8226 leukemia): 15300 nM
GI50 (NCI-H460 lung): 579 nM
TGI (NCI-H460 lung): 26300 nM
GI50 (CAKI-1 renal): 678 nM
TGI (CAKI-1 renal): > 100000 nM
GI50 (NCI/ADR-RES ovarian): 308 nM
TGI (NCI/ADR-RES ovarian): 1440 nM
GI50 (DU-145 prostate): 2050 nM
TGI (DU-145 prostate): > 64100 nM
GI50 (SW-620 colon): 517 nM
TGI (SW-620 colon): > 100000 nM
GI50 (MCF7 breast): 610 nM
TGI (MCF7 breast): > 100000 nM
GI50 (LOX IMVI melanoma): 615 nM
TGI (LOX IMVI melanoma): > 46600 nM
GI50 (UACC-257 melanoma): > 100000 nM
TGI (UACC-257 melanoma): > 100000 nM
GI50 (ACHN renal): 1740 nM
TGI (ACHN renal): > 100000 nM
GI50 (OVCAR-3 ovarian): 380 nM
TGI (OVCAR-3 ovarian): 2810 nM
GI50 (OVCAR-5 ovarian): 2000 nM
TGI (OVCAR-5 ovarian): > 83700 nM
GI50 (RXF 393 renal): 1000 nM
TGI (RXF 393 renal): 11300 nM
GI50 (UO-31 renal): 1870 nM
TGI (UO-31 renal): > 100000 nM
GI50 (A498 renal): > 40700 nM
TGI (A498 renal): > 88300 nM
TGI (OVCAR-4 ovarian): > 100000 nM
GI50 (TK-10 renal): 7830 nM
TGI (TK-10 renal): 98200 nM
GI50 (786-0 renal): 1520 nM
TGI (786-0 renal): 28100 nM
GI50 (T-47D breast): 1310 nM
TGI (T-47D breast): > 100000 nM
GI50 (SK-OV-3 ovarian): 1980 nM
TGI (SK-OV-3 ovarian): > 100000 nM
GI50 (SF-539 CNS): 391 nM
TGI (SF-539 CNS): 2200 nM
GI50 (K-562 leukemia): 235 nM
TGI (K-562 leukemia): > 77100 nM
GI50 (U251 CNS): 431 nM
TGI (U251 CNS): > 89100 nM
GI50 (IGROV1 ovarian): 646 nM
TGI (IGROV1 ovarian): > 100000 nM
GI50 (HCT-15 colon): 384 nM
TGI (HCT-15 colon): > 52700 nM
GI50 (SF-268 CNS): 5440 nM
TGI (SF-268 CNS): > 81400 nM
GI50 (SF-295 CNS): 458 nM
TGI (SF-295 CNS): > 32700 nM
